Test results: article PMC10377753, “Pharmacokinetic and pharmacodynamic properties of polymyxin B in Escherichia coli and Klebsiella pneumoniae murine infection models” (Journal of Antimicrobial Chemotherapy, 2023)
Structures can show the parent of a compound that is named as a salt. Bridge positions count the residues as written; N and C are the ends. Square brackets hold non-standard residues; d marks the D form. Peptide text beside a SMILES is read from it. * marks the point of attachment. X1 = CC[C@H](C)CCCCC(=O)*; Dab = NCC[C@H](N)C(=O)O

Test system: four E. coli and four K. pneumoniae strains
Test: Dose-response study, thigh infection model, summary over all eight isolates
Format: in vivo, Escherichia coli, Klebsiella pneumoniae
Settings: q6h dosing, mouse thigh infection
Experimental: Experiments were carried out in the Erasmus Laboratory Animal Science Centre in Rotterdam, The Netherlands in accordance with the EU Animal Directive 2010/63/EU 2010 directive[14] (licence number AVD101002016702) as described before,[15] with approval of the institutional Animal Welfare Body. Outbred female CD-1 mice obtained from Charles River Germany, weighing 20–25 g, 7–8 weeks old, were used in the experiments. The mice were housed under standard conditions with drink and feed supplied ad libitum.
Mice were rendered neutropenic by intraperitoneal injection of cyclophosphamide of 150 and 100 mg/kg, 4 days and 1 day before infection, respectively. […]
Animals were humanely euthanized 24 h (t = 24 h) after the first dose, unless the welfare of the animals necessitated earlier termination, following animal welfare regulations. […] The following day, colonies were counted and the number of cfu per thigh was calculated.
The drug effect was determined by the difference between the log10 cfu values at t = 0 h (mean value of two mice) and t = 24 h (value of individual mice) expressed as Δlog10 cfu. […]
A sigmoid maximum effect (Emax) model was fitted to the PK/PD index versus Δlog10 cfu data by non-linear regression, and static or a 1 log or 2 log kill effect were determined using GraphPad Prism 8.0 (GraphPad, Inc., San Diego, CA, USA). […]

`CC[C@H](C)CCCCC(=O)N[C@@H](CCN)C(=O)N[C@H](C(=O)N[C@@H](CCN)C(=O)N[C@H]1CCNC(=O)[C@H]([C@@H](C)O)NC(=O)[C@H](CCN)NC(=O)[C@H](CCN)NC(=O)[C@H](CC(C)C)NC(=O)[C@@H](Cc2ccccc2)NC(=O)[C@H](CCN)NC1=O)[C@@H](C)O` [polymyxin B, Polymyxin B sulphate salt] (X1-[Dab]T[Dab][Dab][Dab][dF]L[Dab][Dab]T; lactam 4-C) was tested, and the “Isolates in which a 1 log kill effect was observed” value was 3/8 and the “Isolates in which a 2 log kill effect was observed” value was 1/8.
